19 molecules from patent US12331026B2 (NiKang Therapeutics, Inc., priority 2022, dated 2025) can be followed below.

In this assay the target is T1, CDK2 (Homo sapiens, UniProt P24941).
T1 construct: endogenous in cells; host or cells: OVCAR3 cells
In words: Phospho-RB measurement in OVCAR3 cells (HTRF phospho-RB S807/811). It is filed as cell-based. The settings on record: phosphorylation of RB protein at S807/811, HTRF, 24 h compound treatment, 0.3 to 10,000 nM, read-out: pRb (uM). On the procedure:
The ability of compounds of Formula (I) to inhibit CDK2 was determined in OVCAR3 cells. Phosphorylation of RB protein at S807/811 were measured using HTRF phospho-RB cellular kits (Cat #64RBS807PEG) from Cisbio.
On Day 1, OVCAR3 cells were seeded into 96-well tissue-culture treated plates at 20,000 cells/well in 200 μL and incubated overnight at 37° C. in CO2 atmosphere. On Day 2, the cells were treated with test compounds at concentrations from 0.3 to 10,000 nM using HP D300 digital dispenser. Twenty-four hours after compound treatment, cell culture media was removed by flicking the plate and tapping the plate against clean paper towel. Immediately 30 μL 1× lysis buffer was supplemented from the kit and the plate was incubated at room temperature on shaker for 30 min. After homogenization by pipetting up and down, 8 μL cell lysate from 96-well cell culture plate was transferred to 384-well small volume white detection plate. 2 μL premixed detection solution was added and the plate was covered with sealer. To prepare the detection solution, d2 conjugated-phospho-RB antibody and Eu-cryptate conjugated phosphor-RB antibody were diluted into detection buffer following manufacturer's instruction.
Detection plates were incubated for 4 h at room temperature and read on ClarioStar (BMG Labtech) in TR-FRET mode ([…]). The TR-FRET ratio (665 nM1/620 nM) was plotted against the compound concentration and normalized to DMSO controls. Half maximal inhibition concentration (IC50) values are calculated with a four-parameter logistic fit using GraphPad Prism (version 8; La Jolla, CA).

Consider `O=S1(=O)CC2(CC(Nc3nccc(-c4sc(C56CC(F)(C5)C6)nc4-c4cccc(NS(=O)(=O)c5c(F)cccc5F)c4F)n3)C2)C1` [Example 7, N-(3-(5-(2-((2,2-dioxido-2-thiaspiro[3.3]heptan-6-yl)amino)pyrimidin-4-yl)-2-(3-fluorobicyclo[1.1.1]pentan-1-yl)thiazol-4-yl)-2-fluorophenyl)-2,6-difluorobenzenesulfonamide], for which the IC50 worked out at 0.39 µM.
For the molecule `CC1(C)CCN1c1nc(-c2cccc(NS(=O)(=O)c3c(F)cccc3C(F)(F)F)c2F)c(-c2ccnc(N[C@H]3[C@@H]4CS(=O)(=O)C[C@@H]43)n2)s1` [Example 121, N-(3-(2-(2,2-dimethylazetidin-1-yl)-5-(2-(((1R,5S,6r)-3,3-dioxido-3-thiabicyclo[3.1.0]hexan-6-yl)amino)pyrimidin-4-yl)thiazol-4-yl)-2-fluorophenyl)-2-fluoro-6-(trifluoromethyl)benzenesulfonamide], the IC50 was determined as 0.05 µM.
`CC1CC(C)N1c1nc(-c2cccc(NS(=O)(=O)c3c(F)cccc3F)c2F)c(-c2ccnc(NC3CC4(C3)CS(=O)(=O)C4)n2)s1` (stereo not shown) [Example 71, N-(3-(2-(2,4-dimethylazetidin-1-yl)-5-(2-((2,2-dioxido-2-thiaspiro[3.3]heptan-6-yl)amino)pyrimidin-4-yl)thiazol-4-yl)-2-fluorophenyl)-2,6-difluorobenzenesulfonamide]: the IC50 is 18.9 µM.
Regarding `O=S1(=O)C[C@@H]2[C@H](C1)[C@H]2Nc1nccc(-c2sc(C3(C(F)F)CC3)nc2-c2cccc(NS(=O)(=O)c3c(F)cccc3F)c2F)n1` [Example 98, N-(3-(2-(1-(difluoromethyl)cyclopropyl)-5-(2-(((1R,5S,6r)-3,3-dioxido-3-thiabicyclo[3.1.0]hexan-6-yl)amino)pyrimidin-4-yl)thiazol-4-yl)-2-fluorophenyl)-2,6-difluorobenzenesulfonamide], the IC50 came out at 0.13 µM.
With `O=S1(=O)C[C@@H]2[C@H](C1)[C@@H]2Nc1nccc(-c2sc(N3C4CCC3CN(C3CC(F)(F)C3)C4)nc2-c2cccc(NS(=O)(=O)c3c(F)cccc3F)c2F)n1` [Example 94, N-(3-(2-(3-(3,3-difluorocyclobutyl)-3,8-diazabicyclo[3.2.1]octan-8-yl)-5-(2-(((1R,5S,6s)-3,3-dioxido-3-thiabicyclo[3.1.0]hexan-6-yl)amino)pyrimidin-4-yl)thiazol-4-yl)-2-fluorophenyl)-2,6-difluorobenzenesulfonamide], the IC50 was 0.28 µM.
As to `CC1(C)CCN1c1nc(-c2cccc(NS(=O)(=O)c3c(F)cccc3F)c2F)c(-c2ccnc(NC3CC4(C3)CS(=O)(=O)C4)n2)s1` [Example 29, N-(3-(2-(2,2-dimethylazetidin-1-yl)-5-(2-((2,2-dioxido-2-thiaspiro[3.3]heptan-6-yl)amino)pyrimidin-4-yl)thiazol-4-yl)-2-fluorophenyl)-2,6-difluorobenzenesulfonamide], the IC50 worked out at 0.27 µM.
As for `O=S1(=O)CC2(CC(Nc3nccc(-c4sc(N5C6CCC5CN(Cc5ccccc5)C6)nc4-c4cccc(NS(=O)(=O)c5c(F)cccc5F)c4F)n3)C2)C1` [Example 40, N-(3-(2-(3-benzyl-3,8-diazabicyclo[3.2.1]octan-8-yl)-5-(2-((2,2-dioxido-2-thiaspiro[3.3]heptan-6-yl)amino)pyrimidin-4-yl)thiazol-4-yl)-2-fluorophenyl)-2,6-difluorobenzenesulfonamide], the IC50 came to 1.7 µM.
As for `O=S1(=O)CC(N2CC3CCC(C2)N3c2nc(-c3cccc(NS(=O)(=O)c4c(F)cccc4F)c3F)c(-c3ccnc(NC4CC5(C4)CS(=O)(=O)C5)n3)s2)C1` [Example 45, N-(3-(5-(2-((2,2-dioxido-2-thiaspiro[3.3]heptan-6-yl)amino)-pyrimidin-4-yl)-2-(3-(1,1-dioxidothietan-3-yl)-3,8-diazabicyclo[3.2.1]octan-8-yl)thiazol-4-yl)-2-fluorophenyl)-2,6-difluorobenzenesulfonamide], the IC50 is 4.14 µM.
The same measure for `CS(=O)(=O)C1CCC(Nc2nccc(-c3sc(C45CC(Cl)(C4)C5)nc3-c3cccc(NS(=O)(=O)c4c(F)cccc4C(F)(F)F)c3F)n2)CC1` (stereo not shown) [Example 8, N-(3-(2-(3-chlorobicyclo[1.1.1]pentan-1-yl)-5-(2-(((1s,4s)-4-(methylsulfonyl)cyclohexyl)amino)pyrimidin-4-yl)thiazol-4-yl)-2-fluorophenyl)-2-fluoro-6-(trifluoromethyl)benzenesulfonamide]: 0.24 µM; for `CN1CC2CC(C1)N2c1nc(-c2cccc(NS(=O)(=O)c3c(F)cccc3F)c2F)c(-c2ccnc(NC3CC4(C3)CS(=O)(=O)C4)n2)s1` [Example 22, N-(3-(5-(2-((2,2-dioxido-2-thiaspiro[3.3]heptan-6-yl)amino)pyrimidin-4-yl)-2-(3-methyl-3,6-diazabicyclo[3.1.1]heptan-6-yl)thiazol-4-yl)-2-fluorophenyl)-2,6-difluorobenzenesulfonamide]: 0.44 µM; for `O=S1(=O)CC2(CC(Nc3nccc(-c4sc(C56CC(C5)C6)nc4-c4cccc(NS(=O)(=O)c5c(F)cccc5F)c4F)n3)C2)C1` [Example 3, N-(3-(2-(bicyclo[1.1.1]pentan-1-yl)-5-(2-((2,2-dioxido-2-thiaspiro[3.3]heptan-6-yl)amino)pyrimidin-4-yl)thiazol-4-yl)-2-fluorophenyl)-2,6-difluorobenzenesulfonamide]: 0.12 µM.
As for `CS(=O)(=O)[C@H]1CC[C@@H](Nc2nccc(-c3sc(C45CC(Cl)(C4)C5)nc3-c3cccc(NS(=O)(=O)c4c(F)cccc4C(F)(F)F)c3F)n2)CC1` [Example 146, N-(3-(2-(3-chlorobicyclo[1.1.1]pentan-1-yl)-5-(2-(((1s,4s)-4-(methylsulfonyl)cyclohexyl)amino)pyrimidin-4-yl)thiazol-4-yl)-2-fluorophenyl)-2-fluoro-6-(trifluoromethyl)benzenesulfonamide], the IC50 stood at 0.2 µM.
On to `CC1(C)CCN1c1nc(-c2cccc(NS(=O)(=O)c3c(F)cccc3C(F)(F)F)c2F)c(-c2ccnc(N[C@@H]3[C@@H]4CS(=O)(=O)C[C@@H]43)n2)s1` [Example 120, N-(3-(2-(2,2-dimethylazetidin-1-yl)-5-(2-(((1R,5S,6s)-3,3-dioxido-3-thiabicyclo[3.1.0]hexan-6-yl)amino)pyrimidin-4-yl)thiazol-4-yl)-2-fluorophenyl)-2-fluoro-6-(trifluoromethyl)benzenesulfonamide], for which the IC50 was found to be 0.29 µM.
For the molecule `O=S1(=O)CC2(CC(Nc3nccc(-c4sc(C5(C(F)F)CC5)nc4-c4cccc(NS(=O)(=O)c5c(F)cccc5OC(F)F)c4F)n3)C2)C1` [Example 81], the IC50 was found to be 0.14 µM.
Regarding `CS(=O)(=O)C1CCC(Nc2nccc(-c3sc(C45CC(C(F)(F)F)(C4)C5)nc3-c3cccc(NS(=O)(=O)c4c(Cl)cccc4C(F)(F)F)c3F)n2)CC1` (stereo not shown) [Example 118, 2-chloro-N-(2-fluoro-3-(5-(2-(((1s,4s)-4-(methylsulfonyl)-cyclohexyl)amino)pyrimidin-4-yl)-2-(3-(trifluoromethyl)bicyclo-[1.1.1]pentan-1-yl)thiazol-4-yl)phenyl)-6-(trifluoromethyl)-benzenesulfonamide], the IC50 came to 0.73 µM.
Consider `O=S1(=O)C[C@@H]2[C@H](C1)[C@H]2Nc1nccc(-c2sc(C34CC5CC(CC(C5)C3)C4)nc2-c2cccc(NS(=O)(=O)c3c(F)cccc3F)c2F)n1` [Example 77, N-(3-(2-((3R,5R,7R)-adamantan-1-yl)-5-(2-(((1R,5S,6r)-3,3-dioxido-3-thiabicyclo[3.1.0]hexan-6-yl)amino)pyrimidin-4-yl)thiazol-4-yl)-2-fluorophenyl)-2,6-difluorobenzenesulfonamide], for which the IC50 is 0.24 µM.
For `O=S1(=O)C[C@@H]2[C@H](C1)[C@@H]2Nc1nccc(-c2sc(C34CC5CC(CC(C5)C3)C4)nc2-c2cccc(NS(=O)(=O)c3c(F)cccc3F)c2F)n1` [Example 76, N-(3-(2-((3R,5R,7R)-adamantan-1-yl)-5-(2-(((1R,5S,6s)-3,3-dioxido-3-thiabicyclo[3.1.0]hexan-6-yl)amino)pyrimidin-4-yl)thiazol-4-yl)-2-fluorophenyl)-2,6-difluorobenzenesulfonamide], the IC50 is 0.87 µM.
Take `C[C@H]1COC[C@H](C)N1c1nc(-c2cccc(NS(=O)(=O)c3c(F)cccc3F)c2F)c(-c2ccnc(NC3CC4(C3)CS(=O)(=O)C4)n2)s1` [Example 4, N-(3-(2-((3S,5S)-3,5-dimethylmorpholino)-5-(2-((2,2-dioxido-2-thiaspiro[3.3]heptan-6-yl)amino)pyrimidin-4-yl)thiazol-4-yl)-2-fluorophenyl)-2,6-difluorobenzenesulfonamide]: the IC50 stood at 0.13 µM.
Regarding `CC1C2(CC(Nc3nccc(-c4sc(C56CC(C5)C6)nc4-c4cccc(NS(=O)(=O)c5c(F)cccc5F)c4F)n3)C2)C(C)S1(=O)=O` (stereo not shown) [Example 154, N-(3-(2-(bicyclo[1.1.1]pentan-1-yl)-5-(2-((1,3-dimethyl-2,2-dioxido-2-thiaspiro[3.3]heptan-6-yl)amino)pyrimidin-4-yl)thiazol-4-yl)-2-fluorophenyl)-2,6-difluorobenzenesulfonamide], the IC50 was 0.095 µM.
